The structures appear in SMILES notation. The source made the active and inactive calls. No cut-off for these calls is given here.

The subject of one assay is MCF7. Kind of assay: Antiproliferative activity against androgen-positive human MCF7 cells assessed as cell growth inhibition measured after 72 hrs by SRB assay. The format is functional, cell-based. The settings on record: MCF7, 72 h.
For another assay, the system named is LNCaP C4-2B. Kind of assay: Antiproliferative activity against androgen-sensitive positive human LNCaP C4-2B cells assessed as cell growth inhibition measured after 72 hrs by SRB assay. The format is functional, cell-based. On the technique in general: In SRB staining, fixed cells bind dye roughly in proportion to their protein.
The test system of another assay is LNCaP. The assay is described as follows: Induction of cell cycle arrest in human LNCaP cells assessed as accumulation at G2 phase at 1 micromol/L after 24 hrs by RNase A/PI-staining based flow cytometric analysis (reference value: 20.87%). The format is functional. The conditions noted are these: dose 1 µmol/L, at 1 µM. In general terms: Flow cytometry measures light scatter and fluorescence of single cells or particles in a stream.

Assay [1] deals with Transmembrane protease serine 2 (Homo sapiens) (UniProt O15393). Kind of assay: Induction of downregulation of TMPRSS2 (unknown orgin) human LNCaP cells at 2 uM after 24 hrs by Western blot analysis. For orientation: Immunoblotting shows a protein as a band on a membrane.
Sequence of Transmembrane protease serine 2 (Homo sapiens) (O15393 1-255 limits assumed): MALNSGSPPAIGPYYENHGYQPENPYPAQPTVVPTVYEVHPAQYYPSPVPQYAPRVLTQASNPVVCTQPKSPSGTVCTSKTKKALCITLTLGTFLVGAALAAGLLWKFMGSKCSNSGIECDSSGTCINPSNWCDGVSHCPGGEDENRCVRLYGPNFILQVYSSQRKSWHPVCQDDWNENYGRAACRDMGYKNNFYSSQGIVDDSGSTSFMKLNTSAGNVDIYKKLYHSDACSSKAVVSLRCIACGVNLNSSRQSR
Sequence of Transmembrane protease serine 2 (Homo sapiens) (O15393 256-492 limits assumed): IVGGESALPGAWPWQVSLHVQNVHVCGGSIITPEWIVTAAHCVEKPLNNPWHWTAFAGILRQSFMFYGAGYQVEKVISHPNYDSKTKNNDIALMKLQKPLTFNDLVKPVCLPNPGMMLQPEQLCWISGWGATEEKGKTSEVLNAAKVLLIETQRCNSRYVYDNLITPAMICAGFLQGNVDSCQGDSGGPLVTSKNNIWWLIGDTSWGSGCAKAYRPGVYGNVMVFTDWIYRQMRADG

For orientation: IC50 means the concentration that inhibits the measured activity by half. With `CC1(C)C(=O)N(c2ccc(C#N)c(C(F)(F)F)c2)C(=S)N1CCCCCn1cc(COCCOCCOC(=O)CC23CC4CC(CC(C4)C2)C3)nn1`, the IC50 came to 50.5 µM with MCF7 and 16.6 µM in the assay on LNCaP C4-2B. In addition, the Activity in the assay on LNCaP was 20.07%. For the same compound, the outcome in assay [1] was Active.

Values taken from ChEMBL document CHEMBL4706528, “The design, synthesis and anti-tumor mechanism study of new androgen receptor degrader” (Eur J Med Chem, 2020).
